Measured values: patent US8987273B2, “Substituted imidazo[1,2-B]pyridazines” (Bayer Intellectual Property GmbH, priority 2010, dated 2015)

Tests used:
[1] = molecular target: His-tagged human recombinant kinase full-length Akt1 (Homo sapiens (Human), UniProt P31749); experiment: Akt1 kinase assay (TR-FRET); format: biochemical; conditions: 10 μM ATP; median
Text: Akt1 inhibitory activity of compounds of the present invention was quantified employing the Akt1 TR-FRET assay as described in the following paragraphs. His-tagged human recombinant kinase full-length Akt1 expressed in insect cells was purchased form Invitrogen (part number PV 3599). As substrate for the kinase reaction the biotinylated peptide biotin-Ahx-[…] (C-terminus in amide form) was used which can be purchased e.g. from the company Biosynthan GmbH (Berlin-Buch, Germany).
(§1) For the assay 50 nl of a 100 fold concentrated solution of the test compound in DMSO was pipetted into a black low volume 384 well microtiter plate (Greiner Bio-One, Frickenhausen, Germany), 2 μl of a solution of Akt1 in assay buffer [50 mM TRIS/HCl pH 7.5, 5 mM MgCl2, 1 mM dithiothreitol, 0.02% (v/v) Triton X-100 (Sigma)] were added and the mixture was incubated for 15 min at 22° C. to allow pre-binding of the test compounds to the enzyme before the start of the kinase reaction. Then the kinase reaction was started by the addition of 3 μl of a solution of adenosine-tri-phosphate (ATP, 16.7 μM=>final conc. in the 5 μl assay volume is 10 μM) and substrate (1.67 μM=>final conc. in the 5 μl assay volume is 1 μM) in assay buffer and the resulting mixture was incubated for a reaction time of 60 min at 22° C. The concentration of Akt1 in the assay was adjusted depending of the activity of the enzyme lot and was chosen appropriate to have the assay in the linear range, typical enzyme concentrations were in the range of about 0.05 ng/μl (final conc. in the 5 μl assay volume).
(§2) The reaction was stopped by the addition of 5 μl of a solution of HTRF detection reagents (200 nM streptavidine-XL665 [Cisbio] and 1.5 nM anti-phosho-Serine antibody [Millipore, cat. #35-001] and 0.75 nM LANCE Eu-W 1024 labeled anti-mouse IgG antibody [Perkin Elmer]) in an aqueous EDTA-solution (100 mM EDTA, 0.1% (w/v) bovine serum albumin in 50 mM HEPES/NaOH pH 7.5).
(§3) The resulting mixture was incubated 1 h at 22° C. to allow the binding of the biotinylated phosphorylated peptide to the streptavidine-XL665 and the antibodies. Subsequently the amount of phosphorylated substrate was evaluated by measurement of the resonance energy transfer from the anti-mouse-IgG-Eu-Chelate to the streptavidine-XL665. Therefore, the fluorescence emissions at 620 nm and 665 nm after excitation at 350 nm was measured in a HTRF reader, e.g. a Rubystar (BMG Labtechnologies, Offenburg, Germany) or a Viewlux (Perkin-Elmer). The ratio of the emissions at 665 nm and at […] was taken as the measure for the amount of phosphorylated substrate. The data were normalised (enzyme reaction without inhibitor=0% inhibition, all other assay components but no enzyme=100% inhibition).

[2] = molecular target: His-tagged human recombinant kinase full-length Akt2 (Homo sapiens (Human), UniProt P31751); experiment: Akt2 kinase assay (TR-FRET); format: biochemical; conditions: 10 μM ATP; median
Sequence of His-tagged human recombinant kinase full-length Akt2 (P31751 whole entry): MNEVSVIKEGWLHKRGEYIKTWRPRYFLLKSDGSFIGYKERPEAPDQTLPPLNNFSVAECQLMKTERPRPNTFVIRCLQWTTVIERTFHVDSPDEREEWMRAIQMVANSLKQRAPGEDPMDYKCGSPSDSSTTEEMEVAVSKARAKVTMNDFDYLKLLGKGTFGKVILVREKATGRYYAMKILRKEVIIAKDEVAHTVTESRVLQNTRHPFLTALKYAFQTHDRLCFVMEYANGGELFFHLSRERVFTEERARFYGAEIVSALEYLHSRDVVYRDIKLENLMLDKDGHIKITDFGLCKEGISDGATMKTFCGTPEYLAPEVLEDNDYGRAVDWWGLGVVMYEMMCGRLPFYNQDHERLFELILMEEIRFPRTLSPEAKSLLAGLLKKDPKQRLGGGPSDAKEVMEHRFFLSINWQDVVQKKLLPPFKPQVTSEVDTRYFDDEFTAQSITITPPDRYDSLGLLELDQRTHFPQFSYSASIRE
Text: Akt2 inhibitory activity of compounds of the present invention was quantified employing the Akt2 TR-FRET assay as described in the following paragraphs.
His-tagged human recombinant kinase full-length Akt2 expressed in insect cells and activated by PDK1 was purchased form Invitrogen (part number PV 3975). As substrate for the kinase reaction the biotinylated peptide biotin-Ahx-[…] (C-terminus in amide form) was used which can be purchased e.g. from the company Biosynthan GmbH (Berlin-Buch, Germany).
as §1, with “Akt2” for “Akt1”, “0.2” for “0.05”
as §2, with “0.1%/w/v\” for “0.1% (w/v)”
as §3, with “TR-FRET” for “HTRF”

[3] = system: phospho-AKT at S473 in KPL4 breast tumour cell line; experiment: Cellular p-AKT1/2/3-S473 assay; format: cell-based; conditions: KPL4 cells, 2 hours treatment; median; read-out: pAKT-S743 median IC50
Procedure: The molecular mechanism of action was investigated in a set of experiments to assess the inhibition of the PI3K-AKT-mTOR pathway in responsive cell lines such as KPL4 breast tumour cell line (PIK3CAH1047R, HER2O/E and hormone independent). The phospho-substrates of PI3K-AKT-mTOR axis were used as the read-outs to reflect pathway inhibition. Cells were seeded at 60-80% confluency per well in 96-well cell culture plates. After overnight incubation at 37° C. 5% CO2, cells were treated with compounds and vehicle at 37° C. for 2 hours. […] All measurements where at least done in duplicates and confirmed by independent repetition.
Alternatively pAKT-S473 was measured using the “Akt Duplex” of the MULTI-SPOT® Assay System (Fa. Meso Scale Discovery, Cat# N41100B-1) following manufacturers instructions. Each assay used 20 μg of protein extract and measured total AKT and p-AKT content simultaneously in one well. All measurements where at least done in duplicates and confirmed by independent repetition. Values for P-AKT are expressed as percentage of P-AKT level compared to total-AKT content of the extracts.

[4] = system: KPL-4 cells; experiment: Tumor cell proliferation assay (CellTiter-Glo); format: cell-based; conditions: KPL4; 72 h drug exposure
Procedure: Compounds were tested in a cell-based assay that measures the capacity of the compounds to inhibit tumour cell proliferation following a 72 h drug exposure. Cell viability is determined using CellTiter-Glow® (CTG, Promega, cat# G757112/3). The CellTiter-Glo® Luminescent Cell Viability Assay is a homogeneous method to determine the number of viable cells in culture. Detection is based on using the luciferase reaction to measure the amount of ATP from viable cells. The amount of ATP in cells correlates with cell viability. Within minutes after a loss of membrane integrity, cells lose the ability to synthesize ATP, and endogenous ATPases destroy any remaining ATP; thus the levels of ATP fall precipitously.
Cells were plated at 3000-5000 cells/well (depending on the cell lines) in 90 μL growth medium on MTPs (Corning; #3603, black plate, clear flat bottom). For each cell line assayed, cells were plated onto a separate plate for determination of […] at t=0 hour and t=72 hour time points. Following overnight incubation at 37° C., chemiluminescence values for the t=0 samples were determined after adding 10 μl medium and 100 μl CTG solution according to manufacture protocol. Plates for the t=72 hour time points were treated with compounds diluted into growth medium at ten times final concentration added in 10 μL to the cell culture plate. Cells were then incubated for 72 hours at 37° C. Chemiluminescence values for the t=72 hour samples were determined. For data analysis, briefly, data from 24 h plate where used to reflect 100% inhibition of growth (“Ci”) and DMSO control for uninhibited growth (“C0”) and analyzed using MTS software package for IC50 and Hill coefficient. Experiments were controlled using a reference compound as standard.

Sequence of His-tagged human recombinant kinase full-length Akt1 (P31749 whole entry): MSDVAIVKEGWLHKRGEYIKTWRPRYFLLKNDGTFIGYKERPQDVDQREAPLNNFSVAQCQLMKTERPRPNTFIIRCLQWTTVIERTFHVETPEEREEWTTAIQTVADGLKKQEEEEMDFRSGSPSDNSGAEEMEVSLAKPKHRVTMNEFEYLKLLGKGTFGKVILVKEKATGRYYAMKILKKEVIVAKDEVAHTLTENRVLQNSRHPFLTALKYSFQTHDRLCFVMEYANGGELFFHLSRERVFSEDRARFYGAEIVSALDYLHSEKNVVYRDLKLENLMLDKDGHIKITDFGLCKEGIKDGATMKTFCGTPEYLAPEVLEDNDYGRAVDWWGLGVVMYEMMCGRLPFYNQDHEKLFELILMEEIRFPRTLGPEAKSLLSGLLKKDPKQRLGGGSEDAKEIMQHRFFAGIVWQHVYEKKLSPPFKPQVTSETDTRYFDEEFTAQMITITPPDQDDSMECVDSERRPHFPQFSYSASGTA

Row | IC50 [1] [µM] | IC50 [2] [µM] | IC50 [3] [µM] | IC50 [4] [µM] | Compound
1 | 0.007 | 0.11 | 0.06 | 6.2 | CCOC(=O)c1cncc(-c2cnc3cc(-c4ccccc4)c(-c4ccc(C5(N)CCC5)cc4)nn23)c1 [Example 4-17, 5-{6-[4-(1-Amino-cyclobutyl)-phenyl]-7-phenyl-imidazo[1,2-b]pyridazin-3-yl}-nicotinic acid ethyl ester]
2 | 15 | 16.8 | 10 | 3.85 | Cc1nc2cc(-c3ccccc3)c(-c3ccc(C4(N)CCC4)cc3)nn2c1-c1cccc(C(N)=O)c1 [Example 5-0, 3-{6-[4-(1-Amino-cyclobutyl)-phenyl]-2-methyl-7-phenyl-imidazo[1,2-b]pyridazin-3-yl}-benzamide]
3 | 10.1 | 16.7 | 10 | 2.11 | Cc1nc2cc(-c3ccccc3)c(-c3ccc(C4(N)CCC4)cc3)nn2c1-c1ccc(F)c(CO)c1 [Example 5-1, (5-{6-[4-(1-Amino-cyclobutyl)-phenyl]-2-methyl-7-phenyl-imidazo[1,2-b]pyridazin-3-yl}-2-fluorophenyl)-methanol]
4 | 4.43 | 5.11 | 9.17 | 2.28 | Cc1nc2cc(-c3ccccc3)c(-c3ccc(C4(N)CCC4)cc3)nn2c1-c1ccc(F)cc1 [Example 5-3, 1-{4-[3-(4-Fluorophenyl)-2-methyl-7-phenyl-imidazo[1,2-b]pyridazin-6-yl]-phenyl}-cyclobutylamine]
5 | 12.1 | 4.82 | 10 | 2.38 | Cc1nc2cc(-c3ccccc3)c(-c3ccc(C4(N)CCC4)cc3)nn2c1-c1ccc(C(N)=O)cc1 [Example 5-4, 4-{6-[4-(1-Amino-cyclobutyl)-phenyl]-2-methyl-7-phenyl-imidazol[1,2-b]pyridazin-3-yl}-benzamide]
6 | 2.73 | 5.23 | 4.11 | 3.69 | Cc1nc2cc(-c3ccccc3)c(-c3ccc(C4(N)CCC4)cc3)nn2c1-c1ccn[nH]1 [Example 5-5, 1-{4-[2-Methyl-7-phenyl-3-(2H-pyrazol-3-yl)-imidazo[1,2-b]pyridazin-6-yl]-phenyl}-cyclobutylamine]
7 | 14.9 | 17.2 | 10 | 9.22 | Cc1cc(-c2c(C)nc3cc(-c4ccccc4)c(-c4ccc(C5(N)CCC5)cc4)nn23)[nH]n1 [Example 5-6, 1-{4-[2-Methyl-7-phenyl-3-(5-methyl-2H-pyrazol-3-yl)-imidazo[1,2-b]pyridazin-6-yl]-phenyl}-cyclobutylamine]
8 | 0.068 | 0.041 | 0.41 | 1.89 | NC1(c2ccc(-c3nn4c(-c5ccc(F)cc5)c(Br)nc4cc3-c3ccccc3)cc2)CCC1 [Example 6-0, 1-{4-[2-Bromo-3-(4-fluorophenyl)-7-phenyl-imidazo[1,2-b]pyridazin-6-yl]-phenyl}-cyclobutylamine]
9 | 0.099 | 0.106 | 0.61 | 3.03 | NC1(c2ccc(-c3nn4c(-c5ccc(F)cc5)c(Cl)nc4cc3-c3ccccc3)cc2)CCC1 [Example 7-0, 1-{4-[2-Chloro-3-(4-fluorophenyl)-7-phenyl-imidazo[1,2-b]pyridazin-6-yl]-phenyl}-cyclobutylamine]
10 | 0.038 | 0.222 | 0.05 | 2.42 | NC(=O)/C=C/c1cnc2cc(-c3ccccc3)c(-c3ccc(C4(N)CCC4)cc3)nn12 [Example 8-0, (E)-3-{6-[4-(1-Amino-cyclobutyl)-phenyl]-7-phenyl-imidazo[1,2-b]pyridazin-3-yl}-acrylamide]
11 | 0.044 | 0.326 | 0.03 | 1.87 | C=Cc1cnc2cc(-c3ccccc3)c(-c3ccc(C4(N)CCC4)cc3)nn12 [Example 9-0, 1-[4-(7-Phenyl-3-vinyl-imidazo[1,2-b]pyridazin-6-yl)-phenyl]-cyclobutylamine]
